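Growth conditions: 96-well plates. Treatment: test compound, 48 hours, 5 concentrations. Analysis: linear interpolation between bracketing concentrations; unreached endpoints set to highest concentration. TGI: concentration producing complete growth inhibition.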
Tests used:
Assay in all cases: DTP human tumour cell line panel, 48 h
COLO 205 colon = tested on: COLO 205 colon
EKVX NSCLC = tested on: EKVX NSCLC
HCC-2998 colon = tested on: HCC-2998 colon
HCT-15 colon = tested on: HCT-15 colon
HL-60(TB) leukemia = tested on: HL-60(TB) leukemia
HOP-62 NSCLC = tested on: HOP-62 NSCLC
HT29 colon = tested on: HT29 colon
M14 melanoma = tested on: M14 melanoma
MDA-MB-231 breast = tested on: MDA-MB-231 breast
NCI-H226 lung = tested on: NCI-H226 lung
OVCAR-3 ovarian = tested on: OVCAR-3 ovarian
OVCAR-4 ovarian = tested on: OVCAR-4 ovarian
OVCAR-8 ovarian = tested on: OVCAR-8 ovarian
PC-3 prostate = tested on: PC-3 prostate
RPMI-8226 leukemia = tested on: RPMI-8226 leukemia
SK-MEL-28 melanoma = tested on: SK-MEL-28 melanoma
SK-MEL-5 melanoma = tested on: SK-MEL-5 melanoma
SN12C renal = tested on: SN12C renal
T-47D breast = tested on: T-47D breast
TK-10 renal = tested on: TK-10 renal

Measured: TGI

CC(C)OP(=O)(OC(C)C)C(C(C)C)N(C)C(N)=NC#N (stereo not given)
> 100 µM: COLO 205 colon | EKVX NSCLC | HCC-2998 colon | HCT-15 colon | HL-60(TB) leukemia | HOP-62 NSCLC | HT29 colon | M14 melanoma | MDA-MB-231 breast | NCI-H226 lung | OVCAR-3 ovarian | OVCAR-4 ovarian | OVCAR-8 ovarian | PC-3 prostate | RPMI-8226 leukemia | SK-MEL-28 melanoma | SK-MEL-5 melanoma | SN12C renal | T-47D breast | TK-10 renal
